Laboratory results published in US9708336B2, “Metallo-beta-lactamase inhibitors” (priority 2014, dated 2017).
Like-named read-outs stand apart in the source and are kept apart here.

Columns and labels:
[1] = biological target: NDM-1 (Klebsiella pneumoniae, UniProt C7C422); assay: biochemical; type: biochemical; settings: read-out: NDM-1 IC50
[2] = tested on: Klebsiella pneumoniae expressing VIM-1 (IHMA599644); assay: Antibiotic potentiation activity: synergistic concentration (MITC95) with imipenem, OD600 growth; type: cell-based; settings: for Klebsiella pneumoniae expressing VIM-1 (IHMA 599644) MITC95: concentration giving 95% inhibition of bacterial growth; for Klebsiella pneumoniae MITC95: Klebsiella pneumoniae expressing VIM-1 (IHMA599644), 95% growth inhibition
How it was run: (§1)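 Absorbance after a 22–24 h, 35 °C incubation served as the read-out. Wells held bacteria (saline suspension diluted 1:100 into 1.1× CAMHB), imipenem at 4 μg/ml final or optionally 1 μg/ml, and test compound.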

[3] = tested on: Escherichia coli expressing NDM-1 (CLB30005); assay: as above; type: cell-based; settings: for Escherichia coli expressing NDM-1 (CLB 30005) MITC95: concentration giving 95% inhibition of bacterial growth; for Escherichia coli MITC95: Escherichia coli expressing NDM-1 (CLB30005), 95% growth inhibition
How it was run: as §1

[4] = tested on: Serratia marcescens expressing IMP-1 (CL5741); assay: as above; type: cell-based; settings: for Serratia marcescens expressing IMP-1 (CL5741) MITC95: concentration giving 95% inhibition of bacterial growth; for Serratia marcescens MITC95: Serratia marcescens expressing IMP-1 (CL5741), 95% growth inhibition
How it was run: as §1

[5] = biological target: VIM-1 (Pseudomonas aeruginosa (strain ATCC 15692 / DSM 22644 / CIP 104116 / JCM 14847 / LMG 12228 / 1C / PRS 101 / PAO1), UniProt A0A0F7KYQ8); assay: Enzyme activity: determination of IC50, fluorescence assay with CCF2-FA substrate (VIM-1); type: biochemical
[6] = biological target: IMP-1 (Serratia marcescens, UniProt P52699); assay: biochemical; type: biochemical; settings: read-out: IMP-1 IC50
Sequence of IMP-1 (P52699 whole entry, looked up): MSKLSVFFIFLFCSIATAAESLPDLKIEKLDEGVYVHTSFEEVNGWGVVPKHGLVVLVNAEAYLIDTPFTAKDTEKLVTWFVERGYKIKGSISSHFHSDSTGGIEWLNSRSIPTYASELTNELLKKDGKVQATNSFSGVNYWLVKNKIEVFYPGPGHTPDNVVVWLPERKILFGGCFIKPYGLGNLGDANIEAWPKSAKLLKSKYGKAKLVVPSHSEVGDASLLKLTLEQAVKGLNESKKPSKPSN

[7] = fluorescence assay with CCF2-FA substrate
[8] = fluorescence assay with CCF2-FA substrate, read-out: VIM-1 IC50
[9] = VIM-1 IC50, fluorescence assay with CCF2-FA substrate
[10] = NDM-1 enzyme, CCF2-FA fluorescence assay
[11] = VIM-1 enzyme, CCF2-FA fluorescence assay, read-out: VIM-1 IC50
[12] = IMP-1 enzyme, CCF2-FA fluorescence assay

Sequence of NDM-1 (C7C422 whole entry, looked up, species assumed): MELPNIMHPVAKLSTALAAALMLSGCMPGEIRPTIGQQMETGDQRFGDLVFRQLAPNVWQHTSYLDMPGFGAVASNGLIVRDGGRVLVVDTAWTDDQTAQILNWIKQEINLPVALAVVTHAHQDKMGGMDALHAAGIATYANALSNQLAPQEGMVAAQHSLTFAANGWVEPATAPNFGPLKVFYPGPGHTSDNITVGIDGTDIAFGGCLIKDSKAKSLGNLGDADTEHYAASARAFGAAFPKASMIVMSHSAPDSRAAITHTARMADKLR

| SMILES | IC50 [1, 7] [nM] | Klebsiella pneumoniae expressing VIM-1 (IHMA 599644) MITC95 [2] [µM] | Escherichia coli expressing NDM-1 (CLB 30005) MITC95 [3] [µM] | Serratia marcescens expressing IMP-1 (CL5741) MITC95 [4] [µM] | IC50 [5, 8] [nM] | IC50 [6, 7] [nM] | IC50 [5, 9] [nM] | IC50 [1, 10] [nM] | Klebsiella pneumoniae MITC95 [2] [µM] | Escherichia coli MITC95 [3] [µM] | Serratia marcescens MITC95 [4] [µM] | IC50 [5, 11] [nM] | IC50 [6, 12] [nM] |
| --- | --- | --- | --- | --- | --- | --- | --- | --- | --- | --- | --- | --- | --- |
| NS(=O)(=O)c1nccc(-c2ccc3c(c2)CNC3=O)c1-c1nnn[nH]1 [Example 196, 4-(1-oxoisoindolin-5-yl)-3-(1H-tetrazol-5-yl)pyridine-2-sulfonamide] | 45.6 | 25 | 1.953 | 125 | 50.3 | 1590 |  |  |  |  |  |  |  |
| NS(=O)(=O)c1nccc(-c2ccc(C3CCNCC3)cc2)c1-c1nnn[nH]1 [Example 197, 4-(4-(piperidin-4-yl)phenyl)-3-(1H-tetrazol-5-yl)pyridine-2-sulfonamide] | 130 | 1.563 | 0.3906 | 1.563 | 70.2 | 582 |  |  |  |  |  |  |  |
| NS(=O)(=O)c1nccc(-c2ccc(C3CCNC3)cc2)c1-c1nnn[nH]1 (stereo not drawn) [Example 198, 4-(4-(pyrrolidin-3-yl)phenyl)-3-(1H-tetrazol-5-yl)pyridine-2-sulfonamide] | 68.4 | 2.344 | 0.3906 | 3.125 | 101 | 1170 |  |  |  |  |  |  |  |
| NS(=O)(=O)c1nccc(-c2ccc3[nH]ncc3c2)c1-c1nn[nH]n1 [Example 199, 4-(1H-indazol-5-yl)-3-(2H-tetrazol-5-yl)pyridine-2 sulfonamide] | 13 | 3.125 | 0.3906 | 6.25 | 24.8 | 325 |  |  |  |  |  |  |  |
| NS(=O)(=O)c1nccc(-c2ccc3ncccc3c2)c1-c1nn[nH]n1 [Example 200, 4-(quinolin-6-yl)-3-(2H-tetrazol-5-yl)pyridine-2-sulfonamide] | 30.2 | 50 | 2.083 | 75 | 35.6 | 963 |  |  |  |  |  |  |  |
| NS(=O)(=O)c1nccc(-c2ccc3c(c2)CC(=O)N3)c1-c1nn[nH]n1 [Example 201, 4-(2-oxoindolin-5-yl)-3-(2H-tetrazol-5-yl)pyridine-2-sulfonamide] | 66.2 | 18.75 | 0.7813 | 50 |  | 1450 | 67.1 |  |  |  |  |  |  |
| CS(=O)(=O)Nc1cccc(-c2ccnc(S(N)(=O)=O)c2-c2nn[nH]n2)c1 [Example 202, 4-(3-(methylsulfonamido)phenyl)-3-(2H-tetrazol-5-yl)pyridine-2-sulfonamide] | 11.5 | 25 | 0.3906 | 2.344 | 118 | 23.8 |  |  |  |  |  |  |  |
| NS(=O)(=O)c1nccc(-c2ccc3cn[nH]c3c2)c1-c1nn[nH]n1 [Example 203, 4-(1H-indazol-6-yl)-3-(2H-tetrazol-5-yl)pyridine-2-sulfonamide] | 18.6 | 9.375 | 0.3906 | 50 | 43.6 | 1430 |  |  |  |  |  |  |  |
| NC(=O)c1cccc(-c2ccnc(S(N)(=O)=O)c2-c2nn[nH]n2)c1 [Example 204, 3-(2-sulfamoyl-3-(2H-tetrazol-5-yl)pyridin-4-yl)benzamide] | 59 | 12.5 | 0.3906 | 37.5 | 238 | 2860 |  |  |  |  |  |  |  |
| NS(=O)(=O)c1nccc(-c2ccc3c(c2)OCC(=O)N3)c1-c1nn[nH]n1 [Example 205, 4-(3-oxo-3,4-dihydro-2H-benzo[b][1,4]oxazin-7-yl)-3-(2H-tetrazol-5-yl)pyridine-2-sulfonamide] | 14.3 | 9.375 | 0.3906 | 6.25 | 24.1 | 113 |  |  |  |  |  |  |  |
| NS(=O)(=O)c1nccc(-c2ccc(N3CCOCC3)nc2)c1-c1nn[nH]n1 [Example 208, 6-morpholino-3′-(2H-tetrazol-5-yl)-[3,4′-bipyridine]-2′-sulfonamide] | 94.7 | >200 | 3.646 | 37.5 |  | 589 | 568 |  |  |  |  |  |  |
| NS(=O)(=O)c1nccc(-c2ccc3[nH]nc(C(F)(F)F)c3c2)c1-c1nn[nH]n1 [Example 209, 3-(2H-tetrazol-5-yl)-4-(3-(trifluoromethyl)-1H-indazol-5-yl)pyridine-2-sulfonamide] | 26.3 | 37.5 | 2.604 | 75 | 5.45 | 516 |  |  |  |  |  |  |  |
| Cc1ccccc1-c1ccnc(S(N)(=O)=O)c1-c1nn[nH]n1 [Example 210, 3-(2H-tetrazol-5-yl)-4-(o-tolyl)pyridine-2-sulfonamide] | 11.8 | 15.63 | 0.5208 | 25 | 25.5 | 421 |  |  |  |  |  |  |  |
| NS(=O)(=O)c1nccc(-c2cnc3[nH]ccc3c2)c1-c1nn[nH]n1 [Example 212, 4-(1H-pyrrolo[2,3-b]pyridin-5-yl)-3-(2H-tetrazol-5-yl)pyridine-2-sulfonamide] | 7.91 | 3.125 | 0.3906 | 18.75 | 13.1 | 415 |  |  |  |  |  |  |  |
| NS(=O)(=O)c1nccc(-c2ccc3cccnc3c2)c1-c1nn[nH]n1 [Example 213, 4-(quinolin-7-yl)-3-(2H-tetrazol-5-yl)pyridine-2-sulfonamide] | 51 | 100 | 1.042 | 37.5 | 62.4 | 564 |  |  |  |  |  |  |  |
| NS(=O)(=O)c1nccc(N2CCC3(CCNCC3)CC2)c1-c1nn[nH]n1 [Example 245, 4-(3,9-diazaspiro[5.5]undecan-3-yl)-3-(2H-tetrazol-5-yl)pyridine-2-sulfonamide] |  |  |  |  |  |  |  | 266 | 12.5 | 0.3906 | 50 | 460 | 9780 |
| NS(=O)(=O)c1cccc(-c2ccn3cncc3c2)c1-c1nn[nH]n1 [Example 247, 3-(Imidazo[1,5-a]pyridin-7-yl)-2-(2H-tetrazol-5-yl)benzenesulfonamide] |  |  |  |  |  |  |  | 14.6 | 37.5 | 0.3906 | 25 | 116 | 479 |
